In patent US20130309379A1, “Anti-Fungal Composition” (DSM IP ASSETS B.V., priority 2005, published 2013):
Blank lines part the entries; values can stand above or below the compound they belong to.

Key:
[1] = tested on: Saccharomyces cerevisiae ATCC 9763; conditions: carrier on agar surface of 0.6 cm diameter, carrier loading 40 μg; disclosed in U.S. Pat. No. 5,821,233; cited from earlier work
[2] = Chemical stability (natamycin degradation) in beverages stored at 4° C.; format: physicochemical; conditions: for Total degradation: 4° C., 150 to 170 ppm natamycin
Description: The release rate of the new slow release natamycin was compared with that of known commercial natamycin DELVOCID® Instant (DSM, The Netherlands) by measuring their chemical stability in various beverages. The natamycin preparations were suspended in beverages to a final concentration of 150 to 170 ppm natamycin. The natamycin containing beverages were stored at 4° C. and the natamycin concentration in the beverage was measured in time.

[3] = tested on: Saccharomyces cerevisiae ATCC 9763; test: Microbiological method for determining natamycin release rate from a loaded filter paper disc into seeded agar (inhibition zone); format: physicochemical
From the text: The test used to measure the natamycin release rate has been described in example 1 of this application. Briefly, the sample comprising natamycin is applied to a carrier. The carrier can be any material that provides unlimited water transport. Preferably, the carrier is a filter paper disc, more preferably the filter paper disc used in example 1. Subsequently, the carrier loaded with the natamycin composition is applied to the surface of an agar plate seeded with yeast or fungal cells (in example 1 Saccharomyces cerevisiae cells were used). The agar plate and the carrier are subsequently incubated at a temperature such that the natamycin is released into the agar. (in example 1, the temperature chosen is 6° C.) during 24 hours. After having removed the carrier from the agar plate, the agar plate is incubated under growth permitting conditions for said cells (in example 1, the temperature is 30° C.) during a chosen period. In this case, the period is 24 hours or 48 hours depending on the type of release rate desired to be determined. Finally, inhibition of cell growth in the agar due to the presence of the natamycin, which has been released from the carrier into the agar, is determined. The size of the inhibition zone is a measure of the natamycin released from the sample. […] The discs were then put on agar, which was seeded with the Saccharomyces cerevisiae ATCC 9763. The petri dishes containing the agar were then stored for 24 hours at 6° C. to permit the natamycin to release into the agar. […] As a reference, discs were freshly loaded with a range of known amounts of natamycin dissolved in aqueous methanol. The next day, the sample discs were transferred to new petri dishes containing agar seeded with Saccharomyces cerevisiae. New discs freshly loaded with a range of known quantities of dissolved natamycin were prepared for use as a reference. The new dishes with the sample discs and the new reference were stored at 6° C. for 24 hours and the old dishes containing the released natamycin incubated at 30° C. for 24 hours. The size of the inhibition zone is a measure of the natamycin released from the sample disc. The amount of released natamycin can be calculated by methods know per se. By repeating the procedure, the released natamycin can be measured on a daily basis. Other release time periods may alternatively be chosen. Using the method described in example 1, the release rate profile of the new slow release natamycin was compared to the release rate profile of known commercial natamycin DELVOCID® (DSM, The Netherlands). Suspensions of the natamycin preparations were prepared in such a manner that each suspension contained 800 ppm natamycin as such. 50 μl of each of the respective mixtures was applied on a paper filter disc and the release rate was analysed using the method of example 1.

[4] = Initial release rate, 40 μg carrier loading, 0.6 cm disc, 6° C.

SMILES: C[C@@H]1C/C=C/C=C/C=C/C=C/[C@H](O[C@@H]2O[C@H](C)[C@@H](O)[C@H](N)[C@@H]2O)C[C@@H]2O[C@](O)(C[C@@H](O)C[C@H]3O[C@@H]3/C=C/C(=O)O1)C[C@H](O)[C@H]2C(=O)O [natamycin]
Release rate over the first 24 hours [1]: at least 3 μg/24 hours

Total degradation ([2]; Ice tea pH 3.2, 1 week): 3.4 ppm | Total degradation ([2]; Ice tea pH 3.2, 2 weeks): 5.4 ppm | Total degradation ([2]; Ice tea pH 3.2, 3 weeks): 3.2 ppm | Total degradation ([2]; Ice tea pH 3.2, 4 weeks): 15.0 ppm | Total degradation ([2]; Ice tea pH 3.2, 5 weeks): 17.4 ppm | Difference in total degradation (DELVOCID Instant minus slow release natamycin) ([2]; Ice tea, 1 week): 11.5 ppm | Difference in total degradation (DELVOCID Instant minus slow release natamycin) ([2]; Ice tea, 2 weeks): 11.1 ppm | Difference in total degradation (DELVOCID Instant minus slow release natamycin) ([2]; Ice tea, 3 weeks): 12.1 ppm | Difference in total degradation (DELVOCID Instant minus slow release natamycin) ([2]; Ice tea, 4 weeks): 13.2 ppm | Difference in total degradation (DELVOCID Instant minus slow release natamycin) ([2]; Ice tea, 5 weeks): 14.3 ppm | Total degradation ([2]; Tomato juice pH 4.2, 1 week): 5.1 ppm | Total degradation ([2]; Tomato juice pH 4.2, 2 weeks): 13.1 ppm | Total degradation ([2]; Tomato juice pH 4.2, 3 weeks): 20.1 ppm | Total degradation ([2]; Tomato juice pH 4.2, 4 weeks): 23.2 ppm | Total degradation ([2]; Tomato juice pH 4.2, 5 weeks): 28.9 ppm | Difference in total degradation (DELVOCID Instant minus slow release natamycin) ([2]; Tomato juice, 1 week): 3.5 ppm | Difference in total degradation (DELVOCID Instant minus slow release natamycin) ([2]; Tomato juice, 2 weeks): 0.6 ppm | Difference in total degradation (DELVOCID Instant minus slow release natamycin) ([2]; Tomato juice, 3 weeks): 6.4 ppm | Difference in total degradation (DELVOCID Instant minus slow release natamycin) ([2]; Tomato juice, 4 weeks): 4.7 ppm | Difference in total degradation (DELVOCID Instant minus slow release natamycin) ([2]; Tomato juice, 5 weeks): 3.7 ppm | Release rate compared with DELVOCID Instant in beverages ([2]; tomato juice and ice tea, inferred from degradation, in words): lower | Release rate after 11 days ([3]; 5 μg carrier loading): 0.35 μg/24 hours | % decrease in release rate after 9 days ([3]; 10 μg carrier loading): 35% | Release rate after 11 days ([3]; 10 μg carrier loading): 0.6 μg/24 hours | % decrease in release rate after 9 days ([3]; 40 μg carrier loading): 45% | Release rate after 11 days ([3]; 40 μg carrier loading): 1.2 μg/24 hours | Release rate after 24 hours [3, 4]: <2 μg/24 hours | Release rate after 48 hours [3, 4]: <1.8 μg/24 hours | Release rate compared with DELVOCID ([3]; comparison in words): lower release rate
SMILES: C[C@@H]1C/C=C/C=C/C=C/C=C/[C@H](O[C@@H]2O[C@H](C)[C@@H](O)[C@H](N)[C@@H]2O)C[C@@H]2O[C@](O)(C[C@@H](O)C[C@H]3O[C@@H]3/C=C/C(=O)O1)C[C@H](O)[C@H]2C(=O)O [Low release natamycin, natamycin]
